In US10183919B2 (priority 2014, dated 2019):

Molecular target: T1, Human MOR (Homo sapiens, UniProt P35372)
T1 construct: expressed in transfected cells; host or cells: HEK-293T
Assay: cell-based
Conditions: not given
Text: Transfection. Human or mouse MOR cDNA was transfected alongside GαoB with RLuc8 inserted at position 91 (GαoB-RLuc8), Gβ1 (β1), and Gγ2 fused to the full-length mVenus at its N terminus (mVenus-γ2) into HEK-293T cells (5×10^6 cells/plate) in 10-cm dishes using PEI (Polysciences Inc.; Warrington, Pa.) in a 1:1 ratio diluted in Opti-MEM (Life Technologies Corp.; Grand Island, N.Y.) to assay for G protein activation as described previously (Rives, M.-L. et al. J. Biol. Chem. 2012, 287, 27050-4; Negri, A.; Rives, M.-L.; Caspers, M. J. et al. J. Chem. Inf. Model. 2013, 53, 521-526). Cells were maintained in the Dulbecco's Modified Eagle Medium (high glucose #11965; Life Technologies) supplemented with 10% FBS (Premium Select, Atlanta Biologicals; Atlanta, Ga.) and 100 U/mL penicillin and 100 μg/mL streptomycin (#15140, Life Technologies). After 24 hours the media was changed, and the experiment was performed 24 hours later (48 hours after transfection).
BRET. Transfected cells were dissociated and resuspended in phosphate-buffered saline (PBS). Approximately 200,000 cells/well were added to a black-framed, white well 96-well plate (#60050; Perkin Elmer; Waltham, Mass.). The microplate was centrifuged and the cells were resuspended in PBS. Then 5 μM of the luciferase substrate coelenterazine H was added to each well for 5 minutes. Following coelenterazine H addition, ligands were added and the BRET signal was measured at 5 minutes on a PHERAstar FS plate reader. Quantification of the BRET signal required calculating the ratio of the light emitted by the energy acceptor, mVenus (510-540 nm), over the light emitted by the energy donor, RLuc8 (485 nm). […] Dose response curves were fit using three-parameter logistics equation in GraphPad Prism 6.

T1 sequence (P35372 whole entry): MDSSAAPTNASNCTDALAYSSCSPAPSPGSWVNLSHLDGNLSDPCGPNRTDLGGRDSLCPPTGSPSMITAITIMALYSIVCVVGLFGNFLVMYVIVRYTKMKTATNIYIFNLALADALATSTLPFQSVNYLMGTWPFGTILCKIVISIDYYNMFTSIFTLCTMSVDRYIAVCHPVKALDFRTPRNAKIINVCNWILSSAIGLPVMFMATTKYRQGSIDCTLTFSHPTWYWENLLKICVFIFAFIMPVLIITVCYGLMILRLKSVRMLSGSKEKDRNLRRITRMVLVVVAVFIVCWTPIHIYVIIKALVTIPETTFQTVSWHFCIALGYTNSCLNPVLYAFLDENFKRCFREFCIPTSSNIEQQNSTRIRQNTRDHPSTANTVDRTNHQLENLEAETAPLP

`COCCCNC1c2ccccc2N(C)S(=O)(=O)c2cc([S+](C)[O-])ccc21` (mixture of isomers) [compound 55, 11-((3-Methoxypropyl)amino)-6-methyl-3-(methylsulfinyl)-6,11-dihydrodibenzo[c,f][1,2]thiazepine 5,5-dioxide] and `COCCCNC1c2ccccc2N(C)S(=O)(=O)c2cc(C)ccc21` (stereo not drawn) [compound 15, 11-((3-Methoxypropyl)amino)-3,6-dimethyl-6,11-dihydrodibenzo[c,f][1,2]thiazepine 5,5-dioxide] cannot be ordered by EC50: < 20 µM for the first, < 10 µM for the second.

`COC(C)CCNC1c2ccccc2N(C)S(=O)(=O)c2cc(Cl)ccc21` (mixture of isomers) [compound 67, 3-Chloro-11-((3-methoxybutyl)amino)-6-methyl-6,11-dihydrodibenzo [c,f][1,2]thiazepine 5,5-dioxide] and `COCCNC1c2ccccc2N(C)S(=O)(=O)c2cc(Cl)ccc21` (stereo not drawn) [compound 42, 3-Chloro-11-((2-methoxyethyl)amino)-6-methyl-6,11-dihydrodibenzo [c,f][1,2]thiazepine 5,5-dioxide] cannot be ordered by EC50: < 10 µM for the first, < 10 µM for the second.

`COCC(C)CNC1c2ccccc2N(C)S(=O)(=O)c2cc(Cl)ccc21` (mixture of isomers) [compound 68, 3-Chloro-11-((3-methoxy-2-methylpropyl)amino)-6-methyl-6,11-dihydrodibenzo[c,f][1,2]thiazepine 5,5-dioxide] and `CC(C)OCCCNC1c2ccccc2N(C)S(=O)(=O)c2cc(Cl)ccc21` (stereo not drawn) [compound 35, 3-Chloro-11-((3-isopropoxypropyl)amino)-6-methyl-6,11-dihydrodibenzo [c,f][1,2]azepine 5,5-dioxide] cannot be ordered by EC50: < 10 µM for the first, < 10 µM for the second.

`CCOC(=O)CCCCCCNC1c2ccccc2S(=O)(=O)N(C)c2ccsc21` (stereo not drawn) [compound 6, Ethyl 7-((4-methyl-5,5-dioxido-4,10-dihydrobenzo[f]thieno[3,2-c][1,2]thiazepin-10-yl)amino) heptanoate] and `CCOC(=O)CCCCCCNC1c2ccccc2N(C)S(=O)(=O)c2cc(C)ccc21` (stereo not drawn) [compound 14, Ethyl 7-((3,6-dimethyl-5,5-dioxido-6,11-dihydrodibenzo[c,f][1,2]thiazepin-11-yl)amino) heptanoate] cannot be ordered by EC50: < 10 µM for the first, < 10 µM for the second.

`COCCCNC1c2ccccc2S(=O)(=O)N(C)c2ccsc21` (stereo not drawn) [compound 7, 10-((3-Methoxypropyl)amino)-4-methyl-4,10-dihydrobenzo[f]thieno[3,2-c][1,2]thiazepine 5,5-dioxide] and `COCCCNC1c2ccccc2S(=O)(=O)N(C)c2c(Br)csc21` (stereo not drawn) [compound 43, 3-Bromo-10-((3-methoxypropyl)amino)-4-methyl-4,10-dihydrobenzo[f]thieno[3,2-c][1,2]thiazepine 5,5-dioxide] cannot be ordered by EC50: < 10 µM for the first, < 20 µM for the second.

`COCCCNC1c2ccccc2N(C)S(=O)(=O)c2ccccc21` (stereo not drawn) [compound 10, 11-((3-Methoxypropyl)amino)-6-methyl-6,11-dihydrodibenzo[c,f][1,2]thiazepine 5,5-dioxide] and `COCCCNC1c2ccccc2N(C)S(=O)(=O)c2cc(F)ccc21` (stereo not drawn) [compound 40, 3-Fluoro-11-((3-methoxypropyl)amino)-6-methyl-6,11-dihydrodibenzo[c,f] [1,2]thiazepine 5,5-dioxide] cannot be ordered by EC50: < 10 µM for the first, 5.53 ± 0.25 µM for the second.

`COCCCNC1c2cc(Br)ccc2N(C)S(=O)(=O)c2cc(Cl)ccc21` (stereo not drawn) [compound 11] and `COCCCCNC1c2ccccc2N(C)S(=O)(=O)c2cc(Cl)ccc21` (stereo not drawn) [compound 39, 3-Chloro-11-((4-methoxybutyl)amino)-6-methyl-6,11-dihydrodibenzo [c,f][1,2]thiazepine 5,5-dioxide] cannot be ordered by EC50: < 10 µM for the first, < 10 µM for the second.

`CC(=O)OCCCCCCNC1c2ccccc2N(C)S(=O)(=O)c2cc(Cl)ccc21` (stereo not drawn) [compound 13, 6-((3-Chloro-6-methyl-5,5-dioxido-6,11-dihydrodibenzo[c,f][1,2]thiazepin-11-yl)amino)hexyl acetate] and `CCOC(=O)CCCCCCNC1c2ccccc2N(C)S(=O)(=O)c2cc(Cl)ccc21` (stereo not drawn) [compound 34, Ethyl 7-((3-chloro-6-methyl-5,5-dioxido-6,11-dihydrodibenzo[c,f][1,2]thiazepin-11-yl)amino)heptanoate] cannot be ordered by EC50: < 10 µM for the first, 0.657 ± 0.366 µM for the second.

`Cc1ccc2c(c1)S(=O)(=O)N(C)c1ccccc1C2NCCCCCCC(=O)O` (stereo not drawn) [compound 16] and `CCOC(=O)CCCCCCNC1c2ccccc2N(C)S(=O)(=O)c2cc(F)ccc21` (stereo not drawn) [compound 41, Ethyl 7-((3-fluoro-6-methyl-5,5-dioxido-6,11-dihydrodibenzo[c,f][1,2]thiazepin-11-yl)amino)heptanoate] cannot be ordered by EC50: < 10 µM for the first, 2.04 ± 0.334 µM for the second.

`CCOC(CCCNC1c2ccccc2N(C)S(=O)(=O)c2cc(Cl)ccc21)OCC` (stereo not drawn) [compound 24, 3-Chloro-11-((4,4-diethoxybutyl)amino)-6-methyl-6,11-dihydrodibenzo[c,f][1,2]thiazepine 5,5-dioxide] and `CCCCCCCNC1c2ccccc2N(C)S(=O)(=O)c2cc(Cl)ccc21` (stereo not drawn) [compound 26, 3-Chloro-11-(heptylamino)-6-methyl-6,11-dihydrodibenzo [c,f][1,2]thiazepine 5,5-dioxide] cannot be ordered by EC50: < 10 µM for the first, < 10 µM for the second.

`CN1c2ccccc2C(NCCOCCO)c2ccc(Cl)cc2S1(=O)=O` (stereo not drawn) [compound 25, 3-Chloro-11-((2-(2-hydroxyethoxy)ethyl)amino)-6-methyl-6,11-dihydrodibenzo[c,f][1,2]thiazepine 5,5-dioxide] and `COCCOCCNC1c2ccccc2N(C)S(=O)(=O)c2cc(Cl)ccc21` (stereo not drawn) [compound 36, 3-Chloro-11-((2-(2-methoxyethoxy)ethyl)amino)-6-methyl-6,11-dihydrodibenzo[c,f][1,2]thiazepine 5,5-dioxide] cannot be ordered by EC50: 8.59 ± 0.5 µM for the first, < 10 µM for the second.

`COCCCNC1c2ccccc2N(C)S(=O)(=O)c2cc(OC)ccc21` (stereo not drawn) [compound 27, 3-Methoxy-11-((3-methoxypropyl)amino)-6-methyl-6,11-dihydrodibenzo [c,f][1,2]thiazepine 5,5-dioxide] and `COCCCNC1c2ccccc2N(C)S(=O)(=O)c2cc(I)ccc21` (stereo not drawn) [compound 48, 3-Iodo-11-((3-methoxypropyl)amino)-6-methyl-6,11-dihydrodibenzo [c,f][1,2]thiazepine 5,5-dioxide] cannot be ordered by EC50: < 10 µM for the first, 0.0152 ± 0.0069 µM for the second.

`CN1c2ccccc2C(NCCCC(F)(F)F)c2ccc(Cl)cc2S1(=O)=O` (stereo not drawn) [compound 28, 3-Chloro-6-methyl-11-((4,4,4-trifluorobutyl)amino)-6,11-dihydrodibenzo [c,f][1,2]thiazepine 5,5-dioxide] and `CSCCCNC1c2ccccc2N(C)S(=O)(=O)c2cc(Cl)ccc21` (stereo not drawn) [compound 33, 3-Chloro-6-methyl-11-((3-(methylthio)propyl)amino)-6,11-dihydrodibenzo[c,f][1,2]thiazepine 5,5-dioxide] cannot be ordered by EC50: < 10 µM for the first, < 10 µM for the second.

`COCCCNC1c2ccccc2N(C)S(=O)(=O)c2cc(Oc3ccccc3)ccc21` (stereo not drawn) [compound 29, 11-((3-Methoxypropyl)amino)-6-methyl-3-phenoxy-6,11-dihydrodibenzo [c,f][1,2]thiazepine 5,5-dioxide] and `COCCCCCNC1c2ccccc2N(C)S(=O)(=O)c2cc(Cl)ccc21` (stereo not drawn) [compound 32, 3-Chloro-11-((5-methoxypentyl)amino)-6-methyl-6,11-dihydrodibenzo [c,f][1,2]thiazepine 5,5-dioxide] cannot be ordered by EC50: < 10 µM for the first, 0.563 ± 0.247 µM for the second.

Going from `CN1c2ccccc2C(NCCCCCO)c2ccc(Cl)cc2S1(=O)=O` (stereo not drawn) [compound 30, 3-Chloro-11-((5-hydroxypentyl)amino)-6-methyl-6,11-dihydrodibenzo [c,f][1,2]thiazepine 5,5-dioxide] to `CN1c2ccccc2C(NCCCC2OCCCO2)c2ccc(Cl)cc2S1(=O)=O` (stereo not drawn) [compound 31, 11-((3-(1,3-Dioxan-2-yl)propyl)amino)-3-chloro-6-methyl-6,11-dihydrodibenzo[c,f][1,2]thiazepine 5,5-dioxide], the EC50 falls from > 50 µM to < 10 µM.

`CN1c2ccccc2C(NCC2CCOC2)c2ccc(Cl)cc2S1(=O)=O` (stereo not drawn) [compound 46] and `CN1CCCC1CCNC1c2ccccc2N(C)S(=O)(=O)c2cc(Cl)ccc21` (stereo not drawn) [compound 47] cannot be ordered by EC50: < 10 µM for the first, < 20 µM for the second.

`CCOC(=O)CCCCCCNC1c2ccccc2N(C)S(=O)(=O)c2cc(I)ccc21` (stereo not drawn) [compound 49, Ethyl 7-((3-iodo-6-methyl-5,5-dioxido-6,11-dihydrodibenzo[c,f][1,2]thiazepin-11-yl)amino)heptanoate] and `COCCCNC1c2ccccc2S(=O)(=O)N(C)c2c(OC)cccc21` (stereo not drawn) [compound 50] cannot be ordered by EC50: 0.137 ± 0.017 µM for the first, < 20 µM for the second.

Same assay, conditions: BRET G protein activation, HEK-293T; mean ± SEM of independent trials; read-out: EC50 Human MOR

Going from “7-((3-Iodo-6-methyl-5,5-dioxido-6,11-dihydrodibenzo [c,f][1,2]thiazepin-11-yl)amino)heptanoic acid hydrochloride salt [compound 84]” to `CCOCCCNC1c2ccccc2N(C)S(=O)(=O)c2cc(Cl)ccc21` (stereo not drawn) [compound 37, 3-Chloro-11-((3-ethoxypropyl)amino)-6-methyl-6,11-dihydrodibenzo [c,f][1,2]thiazepine 5,5-dioxide], the EC50 rises from 0.04 µM to 0.893 ± 0.147 µM (22-fold).
